From patent publication US9180116B2, “Difluorolactam compounds as EP4 receptor-selective agonists for use in the treatment of EP4-mediated diseases and conditions” (Cayman Chemical Company, Inc., priority 2012, dated 2015) come the findings set out here.

SMILES strings stand for the structures. Where two headings read alike, the source gives them in different places.

Assay [1] deals with Human Prostanoid EP4 Receptor (Homo sapiens (Human), UniProt P35408). Nature of the assay: Radioligand binding assay, agonist site of human prostanoid EP4 receptor in transfected HEK-293 cells. The following applies: for IC50: read-out: hEP4 receptor binding IC50; for Ki: read-out: hEP4 receptor binding Ki. The method, then:
Radioligand Binding Assay for the Evaluation of the Affinity of Compounds for the Agonist Site of the Human Prostanoid EP4 Receptor in Transfected HEK-293 Cells
Following incubation, the samples are filtered rapidly under vacuum through glass fiber filters (GF/B, Packard) presoaked with 0.3% PEI and rinsed several times with ice-cold 50 mM Tris-HCl using a 96-sample cell harvester (Unifilter, Packard). The filters are dried then counted for radioactivity in a scintillation counter (Topcount, Packard) using a scintillation cocktail (Microscint 0, Packard).

The target in assay [2] is T1, rat EP4 receptor (Rattus norvegicus (Rat), UniProt P43114). Nature of the assay: cAMP level assay for EP4 agonist (STEP plate format). The format is cell-based. The following applies: read-out: STEP cell functional assay EC50 cAMP/EP4. The source says:
(§1) Functional Cellular Assays (STEP Plate Format)
(§2) Procedure of cAMP Assay for EP2/EP4 Agonist
(§3) 3. […] In addition each concentration had triplicates.
(§4) 6. Aspirate the supernatant.

The target of assay [3] is T1, rat EP4 receptor. Nature of the assay: SEAP activity assay for EP4 agonist (STEP plate format). The format is cell-based. The following applies: read-out: STEP cell functional assay EC50 SEAP/EP4.
Source text: as §1
(§5) Procedure of SEAP Activity Assay for EP2/EP4 Agonist
as §3
(§6) 4. […] Cover the plate with the lid.

Assay [4] concerns the target T2, rat EP2 receptor (Rattus norvegicus (Rat), UniProt Q62928). Nature of the assay: SEAP activity assay for EP2 agonist (STEP plate format). The format is cell-based. Conditions: read-out: STEP cell functional assay EC50 SEAP/EP2.
Source text: as §1, §5, §3, §6

The next assay relates to calvarial bone defect. Nature of the assay: Rat calvarial defect model (bone formation). Type of assay: in vivo, female Sprague Dawley rats. Conditions: rat cranial defect 2.6 mm, drug in calcium phosphate cement/demineralized bone matrix, eight weeks.
Assay [5] addresses T2, rat EP2 receptor. Nature of the assay: cAMP level assay for EP2 agonist (STEP plate format). The format is cell-based. Conditions: cAMP readout, read-out: STEP cell functional assay EC50 cAMP/EP2.
Source text: as §1, §2, §3, §4
On the technique in general: Cyclic AMP is a second messenger, typically raised through Gs and lowered through Gi signalling.

[6] abbreviates: [3H]PGE2 0.5 nM, HEK-293 cell membrane homogenates.
[7] abbreviates: cAMP by ELISA, 30 minutes, 500 μM IBMX.
Setting [8] is: SEAP luminescence, 6-8 hours of stimulation.

T1 sequence (P43114 whole entry): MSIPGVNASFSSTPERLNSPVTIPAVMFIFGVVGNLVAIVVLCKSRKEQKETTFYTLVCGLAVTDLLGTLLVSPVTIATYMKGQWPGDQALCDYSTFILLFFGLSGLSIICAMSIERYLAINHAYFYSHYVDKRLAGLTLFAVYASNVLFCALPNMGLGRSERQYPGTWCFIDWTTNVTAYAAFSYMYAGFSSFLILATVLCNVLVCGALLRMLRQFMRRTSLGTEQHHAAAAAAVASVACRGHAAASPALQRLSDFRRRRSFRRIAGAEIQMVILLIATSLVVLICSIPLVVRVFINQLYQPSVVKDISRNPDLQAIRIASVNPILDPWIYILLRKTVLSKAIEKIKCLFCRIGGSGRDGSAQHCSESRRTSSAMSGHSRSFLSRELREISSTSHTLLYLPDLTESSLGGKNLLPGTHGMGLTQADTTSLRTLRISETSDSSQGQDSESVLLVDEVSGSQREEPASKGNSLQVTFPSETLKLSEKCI
T2 sequence (Q62928 whole entry): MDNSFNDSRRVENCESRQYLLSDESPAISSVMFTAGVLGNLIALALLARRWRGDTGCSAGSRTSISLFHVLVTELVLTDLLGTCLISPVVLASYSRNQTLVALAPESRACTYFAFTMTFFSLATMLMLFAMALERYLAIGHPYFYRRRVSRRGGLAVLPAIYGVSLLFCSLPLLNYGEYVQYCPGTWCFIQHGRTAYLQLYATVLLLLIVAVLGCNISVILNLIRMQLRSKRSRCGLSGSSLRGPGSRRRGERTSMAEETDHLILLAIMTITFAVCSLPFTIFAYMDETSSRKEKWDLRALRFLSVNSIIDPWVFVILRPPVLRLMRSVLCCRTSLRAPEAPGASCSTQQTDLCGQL
Chain of Human Prostanoid EP4 Receptor (P35408 whole entry): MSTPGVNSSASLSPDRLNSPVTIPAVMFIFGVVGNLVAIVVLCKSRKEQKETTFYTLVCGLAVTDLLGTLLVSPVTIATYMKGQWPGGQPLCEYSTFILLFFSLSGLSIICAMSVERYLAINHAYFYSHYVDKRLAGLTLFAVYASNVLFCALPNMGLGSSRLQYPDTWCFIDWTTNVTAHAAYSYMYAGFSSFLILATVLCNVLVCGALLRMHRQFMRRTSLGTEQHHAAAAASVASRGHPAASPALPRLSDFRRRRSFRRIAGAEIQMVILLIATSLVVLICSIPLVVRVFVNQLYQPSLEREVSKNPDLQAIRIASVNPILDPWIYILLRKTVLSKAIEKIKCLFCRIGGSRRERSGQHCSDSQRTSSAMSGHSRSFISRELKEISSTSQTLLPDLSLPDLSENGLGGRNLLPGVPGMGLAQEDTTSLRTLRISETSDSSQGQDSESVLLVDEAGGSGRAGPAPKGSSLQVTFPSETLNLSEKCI

One may read the IC50 as the concentration that gives 50% inhibition. For orientation: Ki means the dissociation constant of the complex between target and ligand, obtained from inhibition or displacement. `CCC#CC[C@H](C)[C@H](O)/C=C/[C@H]1CC(F)(F)C(=O)N1CCCCCCC(=O)O` [Example 2C, 7-((R)-3,3-difluoro-5-((3S,4S,E)-3-hydroxy-4-methylnon-1-en-6-yn-1-yl)-2-oxopyrrolidin-1-yl)heptanoic acid]: the IC50 in assay [1] (setting [6]) is 1.3 nM. For the same compound, the Ki in assay [1] (setting [6]) was 0.49 nM. Moreover, the EC50 at rat EP4 receptor [2] (setting [7]) was 0.24 ± 0.08 nM; at rat EP4 receptor [3] (setting [8]), 0.038 ± 0.037 nM; on rat EP2 receptor [4] (setting [8]), over 1000 nM. For the same compound, the “Healing of a calvarial bone defect” value in the assay with calvarial bone defect is given as “Accelerated Healing”.
Turning to `CCC#CC[C@H](C)[C@H](O)/C=C/[C@H]1CC(F)(F)C(=O)N1CCc1ccc(C(=O)O)cc1` [Example 12D, 4-(2-((R)-3,3-difluoro-5-((3S,4S,E)-3-hydroxy-4-methylnon-1-en-6-yn-1-yl)-2-oxopyrrolidin-1-yl)ethyl)benzoic acid], the IC50 in assay [1] (setting [6]) stood at 0.32 nM. Further, in assay [1] (setting [6]), the Ki worked out at 0.12 nM. Moreover, the EC50 came out at 0.047 nM at rat EP4 receptor [2] (setting [7]), 0.035 nM at rat EP4 receptor [3] (setting [8]) and 1630 nM on rat EP2 receptor [4] (setting [8]).
Regarding `CCCCC[C@H](O)/C=C/[C@H]1CC(F)(F)C(=O)N1CCc1ccc(C(=O)O)cc1` [Example 21C, 4-(2-((R)-3,3-difluoro-5-((S,E)-3-hydroxyoct-1-en-1-yl)-2-oxopyrrolidin-1-yl)ethyl)benzoic acid], the IC50 in assay [1] (setting [6]) was 0.22 nM. Also, the Ki in assay [1] (setting [6]) turned out to be 0.082 nM. Moreover, the EC50 on rat EP4 receptor [2] (setting [7]) was found to be 0.61 nM; on rat EP4 receptor [3] (setting [8]), 0.075 nM; on rat EP2 receptor [4] (setting [8]), 1960 nM.
In the case of `C[C@@H](CCCc1ccccc1)[C@H](O)CC[C@H]1CC(F)(F)C(=O)N1CCCc1ccc(C(=O)O)s1` [Example 28C-H2, 5-(3-((S)-3,3-difluoro-5-((3R,4S)-3-hydroxy-4-methyl-7-phenylheptyl)-2-oxopyrrolidin-1-yl)propyl)thiophene-2-carboxylic acid], the EC50 on rat EP4 receptor [2] (cAMP readout, EP4) came out at 0.0029 ± 0.0008 nM; on rat EP2 receptor [5], 1310 nM.
Regarding `CCCCC[C@H](O)/C=C/[C@H]1CC(F)(F)C(=O)N1CCCc1ccc(C(=O)O)s1` [Example 33C, 5-(3-((R)-3,3-difluoro-5-((S,E)-3-hydroxyoct-1-en-1-yl)-2-oxopyrrolidin-1-yl)propyl)thiophene-2-carboxylic acid], the half-maximal inhibitory concentration (IC50) in assay [1] (human EP4 receptor binding) is 0.28 nM. In addition, the Ki in assay [1] (human EP4 receptor binding) was found to be 0.1 nM. The EC50 came out at 0.079 nM at rat EP4 receptor [2] (cAMP readout, EP4); 0.063 nM at rat EP4 receptor [3] (SEAP readout, EP4); 326 nM at rat EP2 receptor [4] (SEAP readout, EP2).
